The target of one experiment is T1, kappa opiate receptor (Cavia porcellus, UniProt P41144).
T1 construct: guinea pig cortices and cerebella were homogenized in 40 mL of Buffer A; from tissue; host or cells: guinea pig cortices and cerebella, crude membrane suspension
In words: Inhibition of tritiated U69,593 binding to the kappa opiate receptor in guinea pig brain homogenates. More on the design: Mean: unit not given beside the values. As to conditions: 3 nm tritiated U69,593, guinea pig brain membranes; for % Bound: [3H]U69,593 bound; for % Inhibition: inhibition of [3H]U69,593 binding; for Mean: mean bound radioactivity of [3H]U69,593, 2.5 hours 25° C.; for Minus NSB: mean minus non-specific binding. Summed up:
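Guinea pig cortex and cerebellum membranes in 50 mM Tris-HCl pH 7.4 incubated with 3 nM [³H]U69,593 for 2.5 h at 25 °C, then filtered and bound radioactivity counted. Unlabelled U50,488 served as competitor for standard curve and nonspecific binding.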

Another experiment deals with T2, mu opiate receptor (Rattus norvegicus, UniProt P33535).
T2 construct: from tissue; host or cells: rat brain membranes/homogenate
T2 sequence (P33535 whole entry): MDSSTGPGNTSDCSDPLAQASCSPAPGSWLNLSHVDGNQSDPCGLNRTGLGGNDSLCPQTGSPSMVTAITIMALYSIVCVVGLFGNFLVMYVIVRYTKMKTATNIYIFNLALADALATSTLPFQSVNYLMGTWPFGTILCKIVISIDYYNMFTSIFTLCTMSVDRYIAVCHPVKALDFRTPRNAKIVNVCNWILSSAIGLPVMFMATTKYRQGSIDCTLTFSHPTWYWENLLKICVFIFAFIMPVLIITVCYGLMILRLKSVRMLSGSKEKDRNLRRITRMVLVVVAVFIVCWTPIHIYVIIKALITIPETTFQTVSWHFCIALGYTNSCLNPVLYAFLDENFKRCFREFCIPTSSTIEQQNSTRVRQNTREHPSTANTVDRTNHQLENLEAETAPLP
In words: Inhibition of [3H]DAMGO binding to the mu opiate receptor in rat brain homogenates. On the set-up: Mean: unit not given beside the values. As to conditions: 0.08 mg of compound per milliliter, 7 nM 3H-labeled DAMGO, rat brain membranes; for % Bound: [3H]DAMGO bound; for Mean: mean bound radioactivity of [3H]DAMGO; for Minus NSB*: mean minus non-specific binding; for % Inhibition: percent inhibition of DAMGO binding. Put shortly: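 Members of an imidazo-imidazolone compound library were tested for blocking binding of [^3H]DAMGO, a mu opiate receptor-specific ligand, to rat brain membranes. Each 0.65 mL tube held 0.08 mg of compound mixture per milliliter, 0.5 mL membrane suspension (0.1 mg of protein) and 7 nM ^3H-labeled DAMGO (36 Ci/mmol) in 50 mM Tris-HCl buffer (pH 7.4).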

T1 sequence (P41144 whole entry): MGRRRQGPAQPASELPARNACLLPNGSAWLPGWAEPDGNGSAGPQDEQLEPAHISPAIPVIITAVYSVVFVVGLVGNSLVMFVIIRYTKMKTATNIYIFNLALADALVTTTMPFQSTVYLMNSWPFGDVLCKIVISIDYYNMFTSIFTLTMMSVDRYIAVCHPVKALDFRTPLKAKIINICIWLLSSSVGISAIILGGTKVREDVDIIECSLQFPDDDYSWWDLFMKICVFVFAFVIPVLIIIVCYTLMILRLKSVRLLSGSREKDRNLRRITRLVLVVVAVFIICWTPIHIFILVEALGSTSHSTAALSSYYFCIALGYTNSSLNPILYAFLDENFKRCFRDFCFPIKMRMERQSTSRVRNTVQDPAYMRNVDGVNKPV

By % Inhibition is commonly meant the relative decrease from the control value, in per cent. In the case of `Cc1nc(CC2CCCCC2)c2n1C(C(C)C)C(=O)N2` (racemic) [Pool 62], on kappa opiate receptor, the “% Bound” value turned out to be 83.909%, the “% Inhibition” value stood at 16.091%, the Mean is listed as 1776.3 and the “Minus NSB” value turned out to be 869.30. For the same molecule, on mu opiate receptor, the “% Bound” value is 52%, the Mean worked out at 805, the “Minus NSB*” value came to 497.00 and the “% Inhibition” value is 48%.

For `CCCCc1nc(C)n2c1NC(=O)C2C(C)C` (stereo not drawn) [Pool 44], on kappa opiate receptor, the “% Bound” value came to 110.299%, the “% Inhibition” value is reported as −10.299%, the Mean is 2049.7 and the “Minus NSB” value turned out to be 1142.70. For the same molecule, on mu opiate receptor, the “% Bound” value worked out at 67%, the Mean was determined as 947.55, the “Minus NSB*” value came to 639.55 and the “% Inhibition” value is 33%.

For `CCCCC(CC)c1nc(C(C)C)c2n1C(C(C)C)C(=O)N2` (mixture of isomers) [Pool 128], at kappa opiate receptor, the “% Bound” value was 57.563%, the “% Inhibition” value came out at 42.437%, the Mean is 1503.35 and the “Minus NSB” value amounted to 596.35. Also, at mu opiate receptor, the “% Bound” value came to 60%, the Mean stood at 881.35, the “Minus NSB*” value came out at 573.35 and the “% Inhibition” value was 40%.

`Cc1nc(C(C)C)c2n1C(Cc1ccccc1)C(=O)N2` (stereo not drawn) [Pool 30]: at kappa opiate receptor, the “% Bound” value is given as 74.884%, the “% Inhibition” value is recorded as 25.116%, the Mean came out at 1682.8 and the “Minus NSB” value is given as 775.80. For the same molecule, on mu opiate receptor, the “% Bound” value came out at 65%, the Mean turned out to be 929.9, the “Minus NSB*” value is recorded as 621.90 and the “% Inhibition” value worked out at 35%.

Consider `CCC(C)C1C(=O)Nc2c(C(C)C)nc(C)n21` (stereo not drawn) [Pool 21], for which, at kappa opiate receptor, the “% Bound” value was found to be 56.921%, the “% Inhibition” value is 43.079%, the Mean was 1496.7 and the “Minus NSB” value was 589.70. In addition, at mu opiate receptor, the “% Bound” value is 55%, the Mean was 833.5, the “Minus NSB*” value is on record as 525.50 and the “% Inhibition” value was found to be 45%.

Take `CC(C)c1nc(Cc2ccccc2)n2c1NC(=O)C2C(C)C` (racemic) [Pool 110]: on kappa opiate receptor, the “% Bound” value came out at 73.451%, the “% Inhibition” value is recorded as 26.549%, the Mean is 1667.95 and the “Minus NSB” value is 760.95. On mu opiate receptor, the “% Bound” value stood at 54%, the Mean came out at 818.7, the “Minus NSB*” value stood at 510.70 and the “% Inhibition” value is listed as 46%.

For `CC(C)Cc1nc(C(C)C)c2n1C(C(C)C)C(=O)N2` (stereo not drawn) [Pool 125], on kappa opiate receptor, the “% Bound” value is reported as 62.384%, the “% Inhibition” value was 37.616%, the Mean was found to be 1553.3 and the “Minus NSB” value is given as 646.30. At mu opiate receptor, the “% Bound” value came to 48%, the Mean came to 763.7, the “Minus NSB*” value was 455.70 and the “% Inhibition” value stood at 52%.

As for `Cc1nc(C)n2c1NC(=O)C2C(C)C` (stereo not drawn) [Pool 51], on kappa opiate receptor, the “% Bound” value came out at 71.313%, the “% Inhibition” value is 28.687%, the Mean came to 1645.8 and the “Minus NSB” value was 738.80. On mu opiate receptor, the “% Bound” value came to 62%, the Mean turned out to be 902.75, the “Minus NSB*” value came to 594.75 and the “% Inhibition” value stood at 38%.

With `Cc1ncc2n1C(C(C)C)C(=O)N2` (stereo not drawn) [Pool 34], on kappa opiate receptor, the “% Bound” value was 79.117%, the “% Inhibition” value is 20.883%, the Mean amounted to 1726.65 and the “Minus NSB” value is listed as 819.65. For the same molecule, at mu opiate receptor, the “% Bound” value worked out at 68%, the Mean is on record as 956.4, the “Minus NSB*” value was found to be 648.40 and the “% Inhibition” value turned out to be 32%.

The values above are taken from US6545032B1, “Synthesis of [3,5,7]-H-imidazo[1,5-a] imidazol-2(3H)-one compounds” (Torrey Pines Institute for Molecular Studies, priority 1999, dated 2003).
